Measured values reported in patent publication US20150098969A1, “ALTERNARIA PEPTIDES” (priority 2012, published 2015).
Where no end group is shown, it is not given here. [ ]: non-standard residue; d: D form. pGlu = O=C1CC[C@@H](C(=O)O)N1; Nle = CCCC[C@H](N)C(=O)O

test system: Peripheral blood mononuclear cells (PBMCs); assay: Cytokine release assay (multiplex bead assay IL-10, IL-13, IFN-g) and analysis of population coverage; assay type: cell-based, human; conditions: cytokine release greater than 50 pg/ml in one or more of IL-13, IL-10, IFN-g; 50 mould allergic subjects; 100 μg/ml; 5 days
Procedure: Polypeptides for use in this assay were manufactured at small scale (approximately 10 mg batch size, non-GMP). […] Polypeptides were added to wells in a volume of 100 μl containing polypeptides at a concentration of […], such that subsequent addition of 100 μl of cells would create a final assay concentration of 100 μg/ml.
Peripheral blood mononuclear cells (PBMCs) were isolated from heparinised blood by Ficoll density gradient centrifugation. […] Following stimulation, culture supernatants (100 μl) were harvested for testing by multiplex bead assay.
Multiplex cytokine bead assays (IL-10, IL-13, Interferon gamma (IFN-g)) were performed on thawed culture supernatants according to the manufacturer's instructions. Single measurements were performed for each culture supernatant sample. After completion of the multiplex assay, individual cytokine levels were determined by interpolation from the standard curve generated in the assay. A positive result was taken as a cytokine release of greater than 50 pg/ml in one or more of the IL-13, IL-10 and IFN-g assays. The number of responders out of 50 mould allergic subjects tested was calculated for each polypeptide for the three cytokines.
An analysis of population coverage was carried out to determine what polypeptides could advantageously capture additional responses from the population when included in combination with other peptides. The number of subjects in the population displaying IL-13 or IFN-g responses to at least one, two or three polypeptides included in a given combination was analysed.
An analysis of population coverage was then carried out for additional combinations of polypeptides identified as having preferable pharmaceutical development characteristics. The number of subjects in the population displaying IL-13 or IFN-g responses to at least one, two or three polypeptides included in a given combination was analysed.

For “KKVS-Nle-AIAKAAAAEK (KKVS[Nle]AIAKAAAAEK) [Alt11A]”, which “% responders” value is on record?
The value was 44%.

With KYRRVVRAGVKVAQTAR [Alt34A] as the substance, how does the “% responders” value read?
Its value is 38%.

With KQLLMLSAKR-Nle-KVAFK [Alt05C] as the substance, how does the “% responders” value read?
The value was 16%.

With LAITYNSRAEGAEK [Alt20] as the substance, how does the “% responders” value read?
Its value is 38%.

Which “% responders” value does the source give for KTYVATATLPNY [Alt02B] here?
The value was 22%.

“KLWHS-Nle-IP-Nle-GRDAK (KLWHS[Nle]IP[Nle]GRDAK) [Alt24A]” was tested. Which “% responders” value did it give?
The value was 40%.

KDITYVATATLPNY [Alt02] was tested. Which “% responders” value did it give?
The value was 36%.

Which “% responders” value does the source give for NEWRDFARVNSISP [Alt23] here?
Its value is 40%.

AEVYQKLKALAKKTYGQ [Alt13A] was tested. Which “% responders” value did it give?
Its value is 86%.

For IEKLRSNITVQYDI [Alt33], which “% responders” value is on record?
Its value is 44%.

With AEVYQKLKALAKK [Alt12] as the substance, how does the “% responders” value read?
Its value is 38%.

For “KLWHSMIP-Nle-GRDAK (KLWHSMIP[Nle]GRDAK) [Alt24C]”, which “% responders” value is on record?
Its value is 36%.

For KYWLYFYKLHPEK [Alt32], which “% responders” value is on record?
The value was 36%.

“GWGV-Nle-VSHRSGET (GWGV[Nle]VSHRSGET) [Alt14A]” was tested. Which “% responders” value did it give?
The value was 56%.

KKVSMAIAKAAAAEK [Alt11] was tested. Which “% responders” value did it give?
The value was 36%.

Which “% responders” value does the source give for GLHFRERKTGSLVIT [Alt21] here?
Its value is 38%.

With LQFTLYRPRDLLS [Alt07] as the substance, how does the “% responders” value read?
The value was 10%.

TYYNSLGFNIKATNGGTL [Alt01] was tested. Which “% responders” value did it give?
The value was 20%.

For GYTGKIKIAMDVASSE [Alt15], which “% responders” value is on record?
The value was 56%.

With DITYVATATLPNYSR [Alt02A] as the substance, how does the “% responders” value read?
Its value is 30%.

KQLLMLSAKRMKVAFK [Alt05] was tested. Which “% responders” value did it give?
The value was 2%.

For “GYTGKIKIA-Nle-DVASSE (GYTGKIKIA[Nle]DVASSE) [Alt15A]”, which “% responders” value is on record?
The value was 42%.

For YEKYRRVVRAGVKV [Alt34], which “% responders” value is on record?
Its value is 38%.

With “KQLL-Nle-LSAKRMKVAFK (KQLL[Nle]LSAKRMKVAFK) [Alt05B]” as the substance, how does the “% responders” value read?
The value was 12%.

SYNVAKAGCIHLAK [Alt22] was tested. Which “% responders” value did it give?
Its value is 46%.

With SAKRMKVAFKLDIEK [Alt06] as the substance, how does the “% responders” value read?
Its value is 16%.

Which “% responders” value does the source give for NWLTLHTAALGPTAK [Alt31] here?
Its value is 58%.

For IFRSLSKEEPDY [Alt04A], which “% responders” value is on record?
The value was 4%.

With “KQLL-Nle-LSAKR-Nle-KVAFK (KQLL[Nle]LSAKR[Nle]KVAFK) [Alt05A]” as the substance, how does the “% responders” value read?
The value was 10%.

KLFQVAETLPQEVLDK [Alt17] was tested. Which “% responders” value did it give?
The value was 30%.

For SAFRSIEPELTVY [Alt10], which “% responders” value is on record?
Its value is 42%.

How did the “% responders” value turn out when WSWKIGPAIATGNT [Alt28] was run?
The value was 52%.

With KRSLLVFAVRSS-Nle-ELRK [Alt27A] as the substance, how does the “% responders” value read?
The value was 42%.

GWGVMVSHRSGET [Alt14] was tested. Which “% responders” value did it give?
The value was 44%.

How did the “% responders” value turn out when KRSLLVFAVRSSMELRK [Alt27] was run?
Its value is 40%.

How did the “% responders” value turn out when IFRSLSKEDPDY [Alt04] was run?
The value was 6%.

With KKYAGVFVSTGTLGGGK [Alt18] as the substance, how does the “% responders” value read?
The value was 50%.

Which “% responders” value does the source give for KEYQKIFPSIQVI [Alt09] here?
The value was 6%.

With KKDAYITLVTLPKSS [Alt03A] as the substance, how does the “% responders” value read?
Its value is 16%.

KSAFRSIEPELTVYK [Alt10A] was tested. Which “% responders” value did it give?
Its value is 34%.

KDAYITLVTLPKSS [Alt03] was tested. Which “% responders” value did it give?
Its value is 22%.

SYNVAKAGSIHLAK [Alt22A] was tested. Which “% responders” value did it give?
The value was 44%.

With SLGFNIKATNGGTLD [Alt01A] as the substance, how does the “% responders” value read?
The value was 26%.

For “PyrKLKALAKKTYGQ ([pGlu]KLKALAKKTYGQ) [Alt13]”, which “% responders” value is on record?
Its value is 40%.

Which “% responders” value does the source give for HEIYVVDRVSAP [Alt30] here?
The value was 36%.

Which “% responders” value does the source give for KLWHSMIPMGRDAK [Alt24] here?
Its value is 34%.

For TLYRPRDLLSLLNE [Alt08], which “% responders” value is on record?
Its value is 10%.

Which “% responders” value does the source give for “SAKR-Nle-KVAFKLDIEK (SAKR[Nle]KVAFKLDIEK) [Alt06A]” here?
Its value is 10%.

same assay, conditions: responders out of 50 individuals

AEVYQKLKALAKKTYGQ [Alt13A] was tested. Which “individuals showing a response” value did it give?
The value was 34/50.
